These results are taken from ChEMBL document CHEMBL4706755, “Novel Small Molecule RNA m6A Demethylase AlkBH5 Inhibitors for Treating Cancer” (ACS Med Chem Lett, 2021).

This assay concerns the target RNA demethylase ALKBH5 (Homo sapiens, UniProt Q6P6C2). The experiment in a line: Inhibition of ALKBH5 demethylase activity (unknown origin) assessed as increase in methylated 6A-RNA level incubated for 2 hrs by colorimetric analysis.

Chain of RNA demethylase ALKBH5 (Q6P6C2 whole entry): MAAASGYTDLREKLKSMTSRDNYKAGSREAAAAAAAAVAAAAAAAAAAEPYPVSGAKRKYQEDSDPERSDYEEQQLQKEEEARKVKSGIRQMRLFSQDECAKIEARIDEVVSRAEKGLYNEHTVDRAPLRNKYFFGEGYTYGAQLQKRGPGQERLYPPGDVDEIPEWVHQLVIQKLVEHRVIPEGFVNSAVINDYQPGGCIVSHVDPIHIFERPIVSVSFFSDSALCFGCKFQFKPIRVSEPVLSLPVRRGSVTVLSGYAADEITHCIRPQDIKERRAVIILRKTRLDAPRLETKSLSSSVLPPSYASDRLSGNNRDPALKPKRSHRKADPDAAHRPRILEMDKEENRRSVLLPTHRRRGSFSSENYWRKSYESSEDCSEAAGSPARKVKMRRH

Usually IC50 stands for the midpoint of a concentration-inhibition curve. Regarding `O=C(O)CSC(O)C(=O)c1ccccc1` (stereo unspecified), the IC50 stood at 840 nM.
